From patent publication US7244740B2, “Imidazo-pyridine derivatives for use in the treatment of herpes viral infection” (SmithKline Beecham Corporation, priority 2001, dated 2007)
pIC50: −log10 of the molar value.

What follows are compounds tested on HSV-1 (assay: HSV-1 replication in Vero 76 cells, DNA hybridization capture assay). Details: Human alphaherpesvirus 1; HSV-1 infected Vero 76 cells, MOI=0.001, 40–48 hours incubation, viral DNA detected by hybridization/chemiluminescence.
Assay type: cell-based, herpes simplex virus 1
Procedure: Vero 76 cells were maintained in MEM with Earle's salts, L-glutamine, 8% FBS (Hyclone, A-1111-L) and 100 units/mL Penicillin-100 μg/mL Streptomycin. For assay conditions, FBS was reduced to 2%. Cells are seeded into 96-well tissue culture plates at a density of 5×10^4 cells/well after being incubated for 45 min at 37° C. in the presence of HSV-1 or HSV-2 (MOI=0.001). Test compounds are added to the wells and the plates are incubated at 37° C. for 40–48 hours. Cell lysates are prepared as follows: media was removed and replaced with 150 μL/well 0.2 N NaOH with 1% Igepal CA 630 or NP-40. Plates were incubated up to 14 days at room temperature in a humidified chamber to prevent evaporation.
For the detection probe, a gel-purified, digoxigenin-labeled, 710-bp PCR fragment of the HSV UL-15 sequence was utilized. PCR conditions included 0.5 μM primers, 180 μM dTTP, 20 μM dUTP-digoxigenin (Boehringer Mannheim 1558706), 200 μM each of dATP, dCTP, and dGTP, 1×PCR Buffer II (Perkin Elmer), 2.5 mM MgCl2, 0.025 units/μL of AmpliTaq Gold polymerase (Perkin Elmer), and 5 ng of gel-purified HSV DNA per 100 μL Extension conditions were 10 min at 95° C., followed by 30 cycles of 95° C. for 1 min, 55° C. for 30 sec, and 72° C. for 2 min. The amplification was completed with a 10-min incubation at 72° C. Primers were selected to amplify a 728 bp probe spanning a section of the HSV1 UL15 open reading frame (nucleotides 249–977). Single-stranded transcripts were purified with Promega M13 Wizard kits. The final product was mixed 1:1 with a mixture of 6 M GuSCN, 100 mM EDTA and 200 μg/mL herring sperm DNA and stored at 4° C.
The capture DNA plasmid (HSV UL13 region in pUC) was linearized by cutting with Xba I, denatured for 15 min at 95° C. and diluted immediately into Reacti-Bind DNA Coating Solution (Pierce, 17250, diluted 1:1 with TE buffer, pH 8) at 1 ng/μL 75 μL/well were added to Corning (#3922 or 9690) white 96-well plates and incubated at room temperature for at least 4 hrs before washing twice with 300 μL/well 0.2×SSC/0.05% Tween-20 (SSC/T buffer). The plates were then incubated overnight at room temperature with 150 μL/well 0.2 N NaOH, 1% IGEPAL and 10 μg/mL herring sperm DNA.
Twenty-seven (27) μL of cell lysate was combined with […] of hybridization solution (final concentration: 3M GuSCN, 50 mM EDTA, 100 μg/ml salmon sperm DNA, 5× Denhardt's solution, 0.25×APE, and 5 ng of the digoxigenin-labeled detection probe). APE is 1.5 M NH4-acetate, 0.15 M ammonium phosphate monobasic, and 5 mM EDTA adjusted to pH 6.0. Mineral oil (50 μL) was added to prevent evaporation. The hybridization plates were incubated at 95° C. for 10 minutes to denature the DNA, then incubated at 42° C. overnight. The wells were washed 6× with 300 μL/well SSC/T buffer then incubated with […] anti-digoxigenin-HRP-conjugated antibody (Boehringer Mannheim 1207733, 1:5000 in TE) for 30 min at room temperature. The wells were washed 6× with 300 μL/well with PBS/0.05% Tween-20 before 75 μL/well SuperSignal LBA substrate (Pierce) was added. The plates were incubated at room temperature for 30 minutes and chemiluminescence was measured in a Wallac Victor reader.
`COc1cccc(-c2nc3c(NC4CCCC4)cccn3c2-c2ccnc(NC3CCCC3)n2)c1` [Example 2, N-Cyclopentyl-3-[2-(cyclopentylamino)-4-pyrimidinyl]-2-(3-methoxyphenyl)imidazo[1,2-α]pyridin-8-amine] gave a pIC50 of 6.46.
With `O=[N+]([O-])c1cccc(-c2nc3c(Cl)cccn3c2-c2ccnc(Nc3ccc(F)cc3)n2)c1` [Example 5, 4-[8-Chloro-2-(3-nitrophenyl)imidazo[1,2-α]pyridin-3-yl]-N-(4-fluorophenyl)pyrimidin-2-amine] the pIC50 was 5.65.
`COc1cccc(-c2nc3c(Cl)cccn3c2-c2ccnc(Nc3ccccc3)n2)c1` [Example 1, 4-[8-Chloro-2-(3-methoxyphenyl)imidazo[1,2-α]pyridin-3-yl]-N-phenylpyrimidin-2-amine] gave a pIC50 of 5.84.
`Cc1ccc(-c2nc3c(NC4CCCC4)cccn3c2-c2ccnc(Nc3ccccc3)n2)cc1` [Example 4, 3-(2-Anilino-4-pyrimidinyl)-N-cyclopentyl-2-(4-methylphenyl)imidazo[1,2-α]pyridin-8-amine] was tested, and the pIC50 was 5.45.
For `Cc1ccc(-c2nc3c(Cl)cccn3c2-c2ccnc(Nc3ccccc3)n2)cc1` [Example 3, 4-[8-Chloro-2-(4-methylphenyl)imidazo[1,2-α]pyridin-3-yl]-N-phenylpyrimidin-2-amine], the pIC50 was 5.45.
